Measured values published in PubChem BioAssay AID330 (DTP/NCI, 2004).
“And” between values parts separate entries of the source, which are not always exact repeats. Equal entries are not always repeated. Inconclusive results and toxic doses are left out. The calls were made as follows: active = survival T/C of 150% or more; inactive = T/C below 125% in these data.

Tested on: P388 leukemia ip, CD2F1 mice, survival T/C
Test: NCI In Vivo Anticancer Drug Screen. Data for tumor model P388 Leukemia (intraperitoneal) in CD2F1 (CDF1) mice
Conditions: endpoint: median survival time, higher = longer survival
Summary of the method: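 Mice carrying the transplanted tumor received test compound or vehicle. Survival was recorded in each group, and the value is the treated-group measurement divided by that of the vehicle-treated control group.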

[1] = dose: 50.0 mg/kg/injection, schedule: Q01DX009 (ip), vehicle: saline
[2] = dose: 100.0 mg/kg/injection, schedule: Q01DX009 (ip), vehicle: saline
[3] = dose: 200.0 mg/kg/injection, schedule: Q01DX009 (ip), vehicle: saline
[4] = dose: 50.0 mg/kg/injection, schedule: Q01DX005 (ip), vehicle: saline with Tween-80
[5] = dose: 100.0 mg/kg/injection, schedule: Q01DX005 (ip), vehicle: saline with Tween-80
[6] = dose: 200.0 mg/kg/injection, schedule: Q01DX005 (ip), vehicle: saline with Tween-80
[7] = dose: 50.0 mg/kg/injection, schedule: Q01DX009 (ip), vehicle: saline with Tween-80
[8] = dose: 100.0 mg/kg/injection, schedule: Q01DX009 (ip), vehicle: saline with Tween-80
[9] = dose: 25.0 mg/kg/injection, schedule: Q01DX009 (ip), vehicle: saline
[10] = dose: 60.0 mg/kg/injection, schedule: Q01DX005 (ip), vehicle: saline with Tween-80
[11] = dose: 120.0 mg/kg/injection, schedule: Q01DX005 (ip), vehicle: saline with Tween-80
[12] = dose: 240.0 mg/kg/injection, schedule: Q01DX005 (ip), vehicle: saline with Tween-80
[13] = dose: 50.0 mg/kg/injection, schedule: Q01DX009 (ip), vehicle: Klucel (hydroxypropylcellulose) (HPC)
[14] = dose: 100.0 mg/kg/injection, schedule: Q01DX009 (ip), vehicle: Klucel (hydroxypropylcellulose) (HPC)
[15] = dose: 200.0 mg/kg/injection, schedule: Q01DX009 (ip), vehicle: Klucel (hydroxypropylcellulose) (HPC)
[16] = dose: 100.0 mg/kg/injection, schedule: Q04DX003 (ip), vehicle: Klucel (hydroxypropylcellulose) (HPC)
[17] = dose: 200.0 mg/kg/injection, schedule: Q04DX003 (ip), vehicle: Klucel (hydroxypropylcellulose) (HPC)
[18] = dose: 100.0 mg/kg/injection, schedule: Q04DX003 (ip), vehicle: saline with Tween-80
[19] = dose: 200.0 mg/kg/injection, schedule: Q04DX003 (ip), vehicle: saline with Tween-80
[20] = dose: 400.0 mg/kg/injection, schedule: Q04DX003 (ip), vehicle: saline with Tween-80
[21] = dose: 50.0 mg/kg/injection, schedule: Q01DX005 (ip), vehicle: saline
[22] = dose: 100.0 mg/kg/injection, schedule: Q01DX005 (ip), vehicle: saline
[23] = dose: 200.0 mg/kg/injection, schedule: Q01DX005 (ip), vehicle: saline

Measured: T/C

CC1(C)OC2(CC1C1(C)C=CC(=O)O1)CC1C(O)(CCC34CC13C(=O)OC4c1ccoc1)O2 (stereo unspecified)
inactive: [1] 100 % of control | [2] 95 % of control | [3] 104 % of control

CCOc1c(N=Nc2ccccc2OC)c(-c2ccccc2)nn1C(N)=S
inactive: [4] 88 % of control | [5] 87 % of control | [6] 98 % of control

O=C(Nc1n[nH]c(NC(=O)c2ccc([N+](=O)[O-])cc2)n1)c1ccc([N+](=O)[O-])cc1
inactive: dose: 50.0 mg/kg/injection, schedule: Q01DX005 (ip), vehicle: Klucel (hydroxypropylcellulose) (HPC) 93 % of control | dose: 100.0 mg/kg/injection, schedule: Q01DX005 (ip), vehicle: Klucel (hydroxypropylcellulose) (HPC) 90 % of control | dose: 200.0 mg/kg/injection, schedule: Q01DX005 (ip), vehicle: Klucel (hydroxypropylcellulose) (HPC) 90 % of control

CCOC(=O)c1c[nH]c(=S)n(CCOC)c1=O
inactive: dose: 25.0 mg/kg/injection, schedule: Q01DX009 (ip), vehicle: saline with Tween-80 92 % of control | [7] 108 % of control | [8] 115 % of control

CCCC(O)CN (stereo unspecified)
inactive: dose: 100.0 mg/kg/injection, schedule: Q04DX003 (ip), vehicle: saline 103 % of control | dose: 200.0 mg/kg/injection, schedule: Q04DX003 (ip), vehicle: saline 107 % of control

CC1(C)OC1C1CC(C2CCC3(C)C4=CCC5C(C)(C)C(=O)CCC5(C)C4CCC23C)C(O)O1 (stereo unspecified)
inactive: dose: 1.5 mg/kg/injection, schedule: Q01DX009 (ip), vehicle: Klucel (hydroxypropylcellulose) (HPC) 90 % of control | dose: 3.0 mg/kg/injection, schedule: Q01DX009 (ip), vehicle: Klucel (hydroxypropylcellulose) (HPC) 94 % of control | dose: 6.0 mg/kg/injection, schedule: Q01DX009 (ip), vehicle: Klucel (hydroxypropylcellulose) (HPC) 103 % of control | dose: 12.0 mg/kg/injection, schedule: Q01DX009 (ip), vehicle: Klucel (hydroxypropylcellulose) (HPC) 100 % of control

CCCCCCCCOS(=O)(=O)c1ccc([N+](C)(C)C)cc1
inactive: dose: 12.5 mg/kg/injection, schedule: Q01DX009 (ip), vehicle: saline 103 % of control | [9] 105 % of control | [1] 110 % of control

Cc1cc(=O)n2c(-c3ccc(Cl)cc3)csc2n1
inactive: dose: 25.0 mg/kg/injection, schedule: Q04DX002 (ip), vehicle: Klucel (hydroxypropylcellulose) (HPC) 90 % of control | dose: 50.0 mg/kg/injection, schedule: Q04DX002 (ip), vehicle: Klucel (hydroxypropylcellulose) (HPC) 101 % of control | dose: 100.0 mg/kg/injection, schedule: Q04DX002 (ip), vehicle: Klucel (hydroxypropylcellulose) (HPC) 102 % of control

CSC(=N\N=C\c1ccc(N(C)C)cc1)/N=C/N(C)C
inactive: [10] 100 % of control | [11] 103 % of control | [12] 103 % of control

Cc1ccc2c3c(c(=O)oc2c1)[C@H](C)C[C@@](C)(CO)O3
inactive: [10] 113 % of control | [11] 107 % of control | [12] 100 % of control

COc1cccc(/C=C2\CCc3ccccc3C2=O)c1OC
inactive: [13] 119 % of control | [14] 106 % of control | [15] 110 % of control

Nc1nnc(-c2ccc(Cl)c(Cl)c2)o1
inactive: [16] 100 % of control | [17] 105 % of control | dose: 400.0 mg/kg/injection, schedule: Q04DX003 (ip), vehicle: Klucel (hydroxypropylcellulose) (HPC) 115 % of control

CCOC(=O)c1cc(=O)oc(=O)[nH]1
inactive: dose: 6.25 mg/kg/injection, schedule: Q04DX003 (ip), vehicle: Klucel (hydroxypropylcellulose) (HPC) 105 % of control | dose: 12.5 mg/kg/injection, schedule: Q04DX003 (ip), vehicle: Klucel (hydroxypropylcellulose) (HPC) 112 % of control | dose: 25.0 mg/kg/injection, schedule: Q04DX003 (ip), vehicle: Klucel (hydroxypropylcellulose) (HPC) 114 % of control | [16] 89 % of control | [17] 87 % of control

O=c1oc2ccccc2c(O)c1C1=N/C(=N/N=C/c2ccc(Cl)cc2)SC1
inactive: dose: 15.0 mg/kg/injection, schedule: Q01DX005 (ip), vehicle: Klucel (hydroxypropylcellulose) (HPC) 98 % of control | dose: 30.0 mg/kg/injection, schedule: Q01DX005 (ip), vehicle: Klucel (hydroxypropylcellulose) (HPC) 100 % of control | dose: 60.0 mg/kg/injection, schedule: Q01DX005 (ip), vehicle: Klucel (hydroxypropylcellulose) (HPC) 101 % of control and 87 % of control | dose: 60.0 mg/kg/injection, schedule: Q02DX002 (ip), vehicle: Klucel (hydroxypropylcellulose) (HPC) 97 % of control | dose: 120.0 mg/kg/injection, schedule: Q02DX002 (ip), vehicle: Klucel (hydroxypropylcellulose) (HPC) 89 % of control | dose: 240.0 mg/kg/injection, schedule: Q02DX002 (ip), vehicle: Klucel (hydroxypropylcellulose) (HPC) 93 % of control

C/C=C/C=C1/OC(C)=C(C(C)=O)C1=O
inactive: dose: 12.5 mg/kg/injection, schedule: Q01DX009 (ip), vehicle: saline + Tween-80 + alcohol 117 % of control | dose: 25.0 mg/kg/injection, schedule: Q01DX009 (ip), vehicle: saline + Tween-80 + alcohol 114 % of control | dose: 100.0 mg/kg/injection, schedule: Q01DX009 (ip), vehicle: saline + Tween-80 + alcohol 112 % of control | [8] 124 % of control | dose: 200.0 mg/kg/injection, schedule: Q01DX009 (ip), vehicle: saline + Tween-80 + alcohol 123 % of control

O=c1ncccn1[C@@H]1O[C@H](CO)[C@H](O)C1O (stereo partly specified)
inactive: dose: 6.25 mg/kg/injection, schedule: Q01DX009 (ip), vehicle: water 103 % of control | dose: 12.5 mg/kg/injection, schedule: Q01DX009 (ip), vehicle: water 104 % of control | dose: 25.0 mg/kg/injection, schedule: Q01DX009 (ip), vehicle: water 101 % of control | dose: 50.0 mg/kg/injection, schedule: Q01DX009 (ip), vehicle: water 102 % of control | dose: 100.0 mg/kg/injection, schedule: Q01DX009 (ip), vehicle: water 108 % of control
active: dose: 400.0 mg/kg/injection, schedule: Q01DX009 (ip), vehicle: saline 152 % of control

CC1=NN(C(=O)c2cccnc2)C(=O)C1N=Nc1ccc(S(=O)(=O)Nc2ccccn2)cc1 (stereo unspecified)
inactive: [18] 94 % of control | [19] 93 % of control | [20] 90 % of control

CC(=O)C(N=Nc1ccc(S(=O)(=O)N=C(N)N)cc1)C(C)=O
inactive: [18] 90 % of control | [19] 88 % of control | [20] 87 % of control

O=C1C2C3C=CC(C3)C2C(=O)N1CNc1ccc2nc(SC3CCCC3)sc2c1 (stereo unspecified)
inactive: [13] 91 % of control | [14] 88 % of control

CC(=O)Nc1ccc(S(=O)(=O)N/N=C/c2cc([N+](=O)[O-])cc(I)c2O)cc1
inactive: [10] 93 % of control | [11] 97 % of control | [12] 103 % of control

O=C1NC(CN2CCC(O)CC2)C(=O)NC1CN1CCC(O)CC1 (stereo unspecified)
inactive: [9] 100 % of control | [1] 100 % of control | [2] 98 % of control | [3] 97 % of control

CNc1ncnc2[nH]ncc12
inactive: [7] 100 % of control | dose: 200.0 mg/kg/injection, schedule: Q04DX003 (ip), vehicle: saline sonified 109 % of control

Cc1cc([N+](=O)[O-])cc(C)c1OC(=O)Nc1c(Cl)cccc1Cl
inactive: dose: 30.0 mg/kg/injection, schedule: Q01DX005 (ip), vehicle: saline with Tween-80 101 % of control | [10] 100 % of control and 95 % of control | [11] 99 % of control and 100 % of control | [12] 94 % of control

C=C(CCCCOCOCCOC)c1ccccc1
inactive: [21] 106 % of control | [22] 107 % of control | [23] 99 % of control

CCOC(=O)C(CCC[n+]1cc2ccccc2c2ccccc21)C(=O)OCC
inactive: [21] 106 % of control | [22] 101 % of control | [23] 101 % of control

CCCCCCCCCc1cc(=O)n(-c2ccc(C(=O)OCC)cc2)n1C
inactive: [13] 104 % of control | [14] 90 % of control | [15] 93 % of control

CC(C)CC(C)C1CCC(C)C1CCC(C)OC=O (stereo unspecified)
inactive: [4] 102 % of control | [5] 114 % of control | [6] 98 % of control
